This test deals with T1, TMEM16A(ac) (Homo sapiens, UniProt Q5XXA6, DEL476-501).
T1 construct: expressed in transfected cells
T1 sequence (Q5XXA6 with tags, fused parts or gaps DEL476-501): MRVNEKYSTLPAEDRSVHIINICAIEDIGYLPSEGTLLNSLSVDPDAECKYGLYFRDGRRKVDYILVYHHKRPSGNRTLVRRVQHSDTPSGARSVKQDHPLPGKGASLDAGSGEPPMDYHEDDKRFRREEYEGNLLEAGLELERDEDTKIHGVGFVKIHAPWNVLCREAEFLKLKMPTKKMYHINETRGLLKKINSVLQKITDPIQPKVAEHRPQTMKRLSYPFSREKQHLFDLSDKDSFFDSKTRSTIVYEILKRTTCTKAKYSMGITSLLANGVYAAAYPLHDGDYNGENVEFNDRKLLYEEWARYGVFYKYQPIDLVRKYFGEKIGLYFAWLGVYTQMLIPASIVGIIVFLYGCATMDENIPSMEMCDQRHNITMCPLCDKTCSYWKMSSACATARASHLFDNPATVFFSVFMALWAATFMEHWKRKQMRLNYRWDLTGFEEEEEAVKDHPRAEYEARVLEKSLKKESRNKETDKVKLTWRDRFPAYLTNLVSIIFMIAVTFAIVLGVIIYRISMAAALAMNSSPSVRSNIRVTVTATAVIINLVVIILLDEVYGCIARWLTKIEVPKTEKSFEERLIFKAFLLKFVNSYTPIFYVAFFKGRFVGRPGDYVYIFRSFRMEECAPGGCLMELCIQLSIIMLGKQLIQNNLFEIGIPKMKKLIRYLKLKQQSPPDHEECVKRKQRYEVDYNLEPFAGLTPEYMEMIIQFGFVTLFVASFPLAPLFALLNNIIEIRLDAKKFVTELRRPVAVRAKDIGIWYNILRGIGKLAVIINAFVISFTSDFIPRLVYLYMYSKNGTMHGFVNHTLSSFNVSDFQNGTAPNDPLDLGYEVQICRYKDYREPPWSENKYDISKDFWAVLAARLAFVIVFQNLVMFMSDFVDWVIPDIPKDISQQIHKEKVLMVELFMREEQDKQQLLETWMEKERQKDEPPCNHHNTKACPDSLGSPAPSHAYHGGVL
Kind of test: hsYFP quenching assay in NCL-SG3-hsYFP-TMEM16A(ac) cells. The format is cell-based. Particulars: 330 μM ATP; for Effect of pretreatment on hsYFP quenching / Ca^2+-dependent Cl^− secretion after ATP: cells overexpressing TMEM16A(ac). As for the experimental part: NCL-SG3-hsYFP, NCL-SG 3-hsYFP-TMEM16A(ac) and NCL-SG3-hsYFP-TMEM16A(acΔe3) cells were untreated (basal activity) or stimulated with ATP (330 μM). Quenching of hsYFP fluorescence was determined. The rate of I^− influx (sec^−1) was calculated from the initial slope of measured hsYFP fluorescence (ΔYFP fluorescence/Δtime) and is a direct measure of CaCC activity. For better comparison fold changes compared to basal activity of parental cells are shown. […] All influx rate differences are higly statistically significant, except the basal influx rate of parental and TMEM16A(ac) overexpressing NCL-SG3-hsYFP cells (Student's t-test, two-tailed; *** p-value<0.0001).
TMEM16A(ac) and TMEM16A(acΔe3) are present in human eccrine sweat glands and were therefore obtained by RT-PCR amplification using TRIzol® (Invitrogen) extracted RNA from freshly isolated human eccrine sweat glands using oligonucleotides (forward 5′-[…]; reverse 5′-[…]) SEQ ID NOS: 5 and 6 , which amplify full-length TMEM16A, and subsequently cloned into the proprietary eukaryotic gene expression plasmid (pEF1α-TMEM16A(ac) and pEF1α-TMEM16A(acΔe3), FIG. 6A). […] Both genes are coupled by an internal ribosomal entry site (IRES) to enable efficient translation of both open reading frames located on the same mRNA. […]
Taken together, NCL-SG3-hsYFP cells can be used to monitor Ca^2+-dependent Cl^− fluxes, which represent the initial step in primary sweat formation in sweat gland cells. […] Microplates were transferred into an automated fluorescence plate reader (FlexStation®, Molecular Devices) and cellular hsYFP fluorescence was continuously recorded every 3.5 sec until end of the experiment (excitation at 485 nm, emission at 535 nm, cutoff 515 nm). […] NCL-SG3-hsYFP cells allow quantitative evaluation of in vivo Cl^− channel activity (FIGS. 9 and 10D). To determine the exact rate of Cl^− efflux/I^− influx the hsYFP fluorescence was plotted against time (ΔYFP fluorescence/Δtime). […]

SMILES strings stand for the structures.

Turning to `Nc1ncnc2c1ncn2[C@@H]1O[C@H](COP(=O)(O)OP(=O)(O)OP(=O)(O)O)[C@@H](O)[C@H]1O` [ATP], the “ATP-induced activity (I^− influx rate, fold)” value (TMEM16A(ac) overexpressing cells) came to 10 fold. As to `O=C(OC[C@H]1O[C@@H](OC(=O)c2cc(O)c(O)c(OC(=O)c3cc(O)c(O)c(O)c3)c2)[C@H](OC(=O)c2cc(O)c(O)c(OC(=O)c3cc(O)c(O)c(O)c3)c2)[C@@H](OC(=O)c2cc(O)c(O)c(OC(=O)c3cc(O)c(O)c(O)c3)c2)[C@@H]1OC(=O)c1cc(O)c(O)c(OC(=O)c2cc(O)c(O)c(O)c2)c1)c1cc(O)c(O)c(OC(=O)c2cc(O)c(O)c(O)c2)c1` [TA, tannic acid], the “Effect of pretreatment on hsYFP quenching / Ca^2+-dependent Cl^− secretion after ATP” value was “significant reduction of hsYFP quenching”. Under “listed as tannic acid”, the “Effect of pretreatment on hsYFP quenching / Ca^2+-dependent Cl^− secretion after ATP” value is on record as “inhibited”.

Source of the values: patent US9809853B2, “Calcium-activated chloride channel involved in human sweat formation” (BRAIN Biotechnology Research and Information Network AG, priority 2012, dated 2017).
